Series [1] in a line: PK parameters in male ICR mice. In kind it is in vivo. How it is done: (§1) The pharmacokinetics (PK) of representative Compounds of the Disclosure were evaluated in mice or rats to provide an assessment of their oral bioavaibility. All animal experiments were performed under the guidelines of the University of Michigan Committee for Use and Care of Animals and using an approved animal protocol.

The next series concerns the target T1, AR protein (Homo sapiens, UniProt P10275).
T1 construct: endogenous in cells; host or cells: VCaP
T1 sequence (P10275 1-920): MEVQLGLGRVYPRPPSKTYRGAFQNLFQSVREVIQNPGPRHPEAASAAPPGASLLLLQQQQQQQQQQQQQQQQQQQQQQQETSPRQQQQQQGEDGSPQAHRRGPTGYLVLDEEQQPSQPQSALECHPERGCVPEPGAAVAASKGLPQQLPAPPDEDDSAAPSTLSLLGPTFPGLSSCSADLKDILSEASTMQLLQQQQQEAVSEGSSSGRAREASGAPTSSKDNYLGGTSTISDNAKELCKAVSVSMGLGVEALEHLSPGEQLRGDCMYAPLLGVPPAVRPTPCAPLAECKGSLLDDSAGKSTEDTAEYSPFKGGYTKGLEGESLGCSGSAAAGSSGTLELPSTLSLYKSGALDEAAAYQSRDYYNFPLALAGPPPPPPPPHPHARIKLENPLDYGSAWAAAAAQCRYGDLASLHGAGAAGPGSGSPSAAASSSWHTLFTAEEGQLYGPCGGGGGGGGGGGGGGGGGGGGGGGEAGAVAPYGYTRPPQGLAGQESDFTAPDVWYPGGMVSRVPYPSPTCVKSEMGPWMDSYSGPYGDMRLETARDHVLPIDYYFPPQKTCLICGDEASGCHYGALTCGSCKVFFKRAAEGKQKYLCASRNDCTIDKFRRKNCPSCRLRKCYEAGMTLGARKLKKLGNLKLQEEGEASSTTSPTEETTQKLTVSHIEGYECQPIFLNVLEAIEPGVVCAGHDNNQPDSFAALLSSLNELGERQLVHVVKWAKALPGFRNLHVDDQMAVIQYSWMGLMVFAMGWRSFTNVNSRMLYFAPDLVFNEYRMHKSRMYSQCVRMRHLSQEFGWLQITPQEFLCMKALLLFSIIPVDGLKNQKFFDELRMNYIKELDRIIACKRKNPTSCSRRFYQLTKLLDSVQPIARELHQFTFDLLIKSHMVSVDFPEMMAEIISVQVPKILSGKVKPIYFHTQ
Kind of series: Western blotting of AR protein degradation in VCaP cells. The class given is cell-based. How it is done: The treated cells were lysed with RIPA buffer. […] GAPDH was used as a loading control.
Bands were quantified with ImageJ software. The relative numbers of each band obtained from normalization with its corresponding GAPDH level were compared with Prism 8 software. The DC50 values were produced from Prism 8, and the DC90 values were calculated with an equation=Bottom+(Top−Bottom)/(1+10^((Log EC50−X)*HillSlope) based on DC50 and Hillslope values.
On the technique in general: In western blotting, separated proteins are transferred to a membrane and probed.

Series [2] is described as follows: PK parameters in male mice (Table 9). To be noted: for Vd: read-out: Vss. In kind it is in vivo. How it is done:
as §1

Where [3] appears, read: ICR, mouse, in vivo, IV 1 mg/kg.
Where [4] appears, read: ICR, mouse, in vivo, IV 2 mg/kg.

The structures appear in SMILES notation. Where two headings read alike, the source gives them in different places.

In general, AUC(0-t) refers to the area under the concentration-time curve up to a stated or last time point. By Vss is commonly meant the apparent volume that relates the amount in the body to the concentration in plasma or blood. A lower Vss goes with confinement near the circulation. One may read the Cmax as the peak of the concentration-time curve. As a reminder, the clearance is the volume of plasma or blood freed of the substance per unit of time. The low end stands for a low capacity for elimination, the high end for a high capacity for elimination. The Tmax is the time from dosing to the highest level. By half-life is commonly meant how long it takes for the measured level to halve. Read a high half-life as slow loss.

Consider `CC1(C)[C@H](NC(=O)c2ccc(N3CCN(CC4CCN(c5ccc6c(c5)C(=O)N(C5CCC(=O)NC5=O)C6=O)CC4)CC3)cc2)C(C)(C)[C@H]1Oc1ccc(C#N)c(Cl)c1` (stereo partly drawn) [Cpd. No. 46, N-((1r,3r)-3-(3-chloro-4-cyanophenoxy)-2,2,4,4-tetramethylcyclobutyl)-4-(4-((1-(2-(2,6-dioxopiperidin-3-yl)-1,3-dioxoisoindolin-5-yl)piperidin-4-yl)methyl)piperazin-1-yl)benzamide], for which, in series [1] (IV 2 mg/kg), the AUC(0-t) amounted to 13298.5 ng·h/mL, the Cl-obs is 1.2 mL/min/kg and the Vss amounted to 2.7 L/kg. In series [1] (PO 5 mg/kg), the AUC(0-t) turned out to be 22360.5 ng·h/mL, the Cmax worked out at 1304.3 ng/mL, the F turned out to be 67.3% and the T1/2 amounted to 18.8 h.

In the case of `CN(c1ccc(C#N)c(Cl)c1)[C@H]1CC[C@H](NC(=O)c2ccc(N3CC(N4CCN(c5ccc6c(c5)C(=O)N(C5CCC(=O)NC5=O)C6=O)CC4)C3)cc2)CC1` (stereo partly drawn) [compound 240, N-((1r,4r)-4-((3-chloro-4-cyanophenyl)(methyl)amino)cyclohexyl)-4-(3-(4-(2-(2,6-dioxopiperidin-3-yl)-1,3-dioxoisoindolin-5-yl)piperazin-1-yl)azetidin-1-yl)benzamide], the “% AR protein degradation in VCaP Cells” value at AR protein (0.001 μM) is recorded as 82%. In addition, the “% AR protein degradation in VCaP Cells” value on AR protein (0.01 μM) was found to be 87%. Besides, the “% AR protein degradation in VCaP Cells” value at AR protein (0.1 μM) turned out to be 88%. In addition, the “% AR protein degradation in VCaP Cells” value on AR protein (1 μM) turned out to be 75%. The clearance in series [2] (setting [3]) was 3.5 mL/min/kg. Besides, in series [2] (IV 1 mg/kg), the area under the curve AUC(0-t) came to 4234 ng·h/mL, the T1/2 is listed as 7.5 h and the distribution volume (Vss) is recorded as 2.1 L/kg. Moreover, in series [2] (PO 3 mg/kg), the area under the curve AUC(0-t) is 8637 ng·h/mL, the Cmax came out at 484 ng/mL, the T1/2 worked out at 26.8 h and the Tmax was found to be 4.7 h. For the same compound, in series [2] (PO 3 mg/kg vs IV 1 mg/kg), the F was 67%.

With `N#Cc1ccc(O[C@H]2CC[C@H](NC(=O)c3ccc(N4CCN(C5CCN(c6ccc7c(c6)C(=O)N(C6CCC(=O)NC6=O)C7=O)CC5)CC4)cc3)CC2)cc1Cl` (stereo partly drawn) [compound 222, N-((1r,4r)-4-(3-chloro-4-cyanophenoxy)cyclohexyl)-4-(4-(1-(2-(2,6-dioxopiperidin-3-yl)-1,3-dioxoisoindolin-5-yl)piperidin-4-yl)piperazin-1-yl)benzamide], the “% AR protein degradation in VCaP Cells” value on AR protein (0.001 μM) was 63%; on AR protein (0.01 μM), 59%; at AR protein (0.1 μM), 60%; at AR protein (1 μM) it was 43%. The same compound had a clearance in series [2] (setting [3]) of 7.33 mL/min/kg. The half-life in series [2] (setting [3]) was 9 h; in series [2] (ICR, mouse, in vivo, PO 3 mg/kg), 11.3 h. Further, the AUC(0-t) in series [2] (ICR, mouse, in vivo, IV 1 mg/kg, read-out: AUC(0-t)) came to 1980 ng·h/mL; in series [2] (ICR, mouse, in vivo, PO 3 mg/kg, read-out: AUC(0-t)) it was 1990 ng·h/mL. Further, the Vd in series [2] (setting [3]) was found to be 4.75 L/kg. Besides, in series [2] (ICR, mouse, in vivo, PO 3 mg/kg, read-out: Cmax), the Cmax was determined as 122 ng/mL. For the same compound, the Tmax in series [2] (ICR, mouse, in vivo, PO 3 mg/kg, read-out: Tmax) stood at 6 h. The F in series [2] (PO 3 mg/kg vs IV 1 mg/kg) is on record as 33%.

In series [1] (IV 1 mg/kg), `CC1(C)[C@H](NC(=O)c2ccc(N3CCC(N4CCN(c5ccc6c(c5)C(=O)N(C5CCC(=O)NC5=O)C6=O)CC4)CC3)cc2)C(C)(C)[C@H]1Oc1ccc(C#N)c(Cl)c1` (stereo partly drawn) [compound 189, N-((1r,3r)-3-(3-chloro-4-cyanophenoxy)-2,2,4,4-tetramethylcyclobutyl)-4-(4-(4-(2-(2,6-dioxopiperidin-3-yl)-1,3-dioxoisoindolin-5-yl)piperazin-1-yl)piperidin-1-yl)benzamide] displayed an AUC(0-t) of 4333.7 ng·h/mL, a Cl-obs of 2.2 mL/min/kg and a Vss of 3.8 L/kg. Besides, in series [1] (PO 3 mg/kg), the AUC(0-t) is 3127 ng·h/mL, the Cmax is recorded as 207 ng/mL, the F came out at 24% and the T1/2 is reported as 12.4 h.

Take `CN(c1ccc(C#N)c(Cl)c1)[C@H]1CC[C@H](NC(=O)c2ccc(N3CCN(C4CCN(c5ccc6c(c5)C(=O)N(C5CCC(=O)NC5=O)C6=O)CC4)CC3)cc2)CC1` (stereo partly drawn) [Cpd. No. 235, N-((1r,4r)-4-((3-chloro-4-cyanophenyl)(methyl)amino)cyclohexyl)-4-(4-(1-(2-(2,6-dioxopiperidin-3-yl)-1,3-dioxoisoindolin-5-yl)piperidin-4-yl)piperazin-1-yl)benzamide]: the “% AR protein degradation in VCaP Cells” value at AR protein (0.001 μM) is 94%. Besides, the “% AR protein degradation in VCaP Cells” value on AR protein (0.01 μM) was 99%. Besides, the “% AR protein degradation in VCaP Cells” value at AR protein (0.1 μM) came to 99.9%. In addition, the Vd in series [2] (setting [3]) was determined as 2.64 L/kg. In addition, in series [2] (IV 1 mg/kg), the area under the curve AUC(0-t) worked out at 3366 ng·h/mL, the Cl turned out to be 4.5 mL/min/kg and the T1/2 is recorded as 7.6 h. In series [2] (PO 3 mg/kg), the “AUC(0-t)” value amounted to 3001 ng·h/mL, the Cmax came to 256.1 ng/mL, the T1/2 was found to be 7.0 h and the time to peak (Tmax) turned out to be 4.7 h. In addition, the F in series [2] (PO 3 mg/kg vs IV 1 mg/kg) was determined as 29%.

Turning to `N#Cc1ccc(O[C@H]2CC[C@H](NC(=O)c3ccc(N4CCN(C5CN(c6ccc7c(c6)C(=O)N(C6CCC(=O)NC6=O)C7=O)C5)CC4)cc3)CC2)cc1Cl` (stereo partly drawn) [compound 225, N-((1r,4r)-4-(3-chloro-4-cyanophenoxy)cyclohexyl)-4-(4-(1-(2-(2,6-dioxopiperidin-3-yl)-1,3-dioxoisoindolin-5-yl)azetidin-3-yl)piperazin-1-yl)benzamide], the “% AR protein degradation in VCaP Cells” value on AR protein (0.001 μM) is 61%; at AR protein (0.01 μM), 48%; on AR protein (0.1 μM), 15%; at AR protein (1 μM) it was −23%. For the same compound, the clearance in series [2] (setting [4]) is 4.33 mL/min/kg. For the same compound, the half-life in series [2] (setting [4]) was 6.58 h; in series [2] (ICR, mouse, in vivo, PO 5 mg/kg), 5.8 h. The AUC(0-t) was determined as 6760 ng·h/mL in series [2] (ICR, mouse, in vivo, IV 2 mg/kg, read-out: AUC(0-t)) and 13100 ng·h/mL in series [2] (ICR, mouse, in vivo, PO 5 mg/kg, read-out: AUC(0-t)). Moreover, the Vd in series [2] (setting [4]) amounted to 2.23 L/kg. The Cmax in series [2] (ICR, mouse, in vivo, PO 5 mg/kg, read-out: Cmax) was 2130 ng/mL. The time of peak concentration (Tmax) in series [2] (ICR, mouse, in vivo, PO 5 mg/kg, read-out: Tmax) is 2 h. The compound further displayed a F in series [2] (PO 5 mg/kg vs IV 2 mg/kg) of 77%.

On to `CN(c1ccc(C#N)c(Cl)c1)[C@H]1CC[C@H](NC(=O)c2ccc(N3CC(CN4CCN(c5ccc6c(c5)C(=O)N(C5CCC(=O)NC5=O)C6=O)CC4)C3)cc2)CC1` (stereo partly drawn) [compound 239, N-((1r,4r)-4-((3-chloro-4-cyanophenyl)(methyl)amino)cyclohexyl)-4-(3-((4-(2-(2,6-dioxopiperidin-3-yl)-1,3-dioxoisoindolin-5-yl)piperazin-1-yl)methyl)azetidin-1-yl)benzamide], for which the “% AR protein degradation in VCaP Cells” value on AR protein (0.001 μM) came out at 73%. In addition, the “% AR protein degradation in VCaP Cells” value at AR protein (0.01 μM) worked out at 91%. Further, the “% AR protein degradation in VCaP Cells” value on AR protein (0.1 μM) came to 95%. The “% AR protein degradation in VCaP Cells” value on AR protein (1 μM) came to 94%. Moreover, in series [2] (IV 1 mg/kg), the “AUC(0-t)” value amounted to 1118 ng·h/mL, the Cl stood at 13.2 mL/min/kg, the T1/2 came to 8.8 h and the Vss is reported as 8.25 L/kg. Moreover, in series [2] (PO 3 mg/kg), the “AUC(0-t)” value stood at 1134 ng·h/mL, the peak concentration (Cmax) was 92.2 ng/mL, the T1/2 is 8.1 h and the Tmax stood at 4.0 h. In series [2] (PO 3 mg/kg vs IV 1 mg/kg), this compound had an F of 34%.
